Data: patent publication US20220096706A1, “ELECTROSPUN NANOFIBER-BASED DRESSINGS AND METHODS OF MANUFACTURE AND USE THEREOF” (BOARD OF REGENTS OF THE UNIVERSITY OF NEBRASKA, priority 2019, published 2022)
Non-standard residues stand in square brackets, D forms with d. No end group written: not given here. Bip = N[C@@H](Cc1ccc(-c2ccccc2)cc1)C(=O)O

Legend:
S. aureus USA300 = details: compared to either LL-37 or GF-17; cited from earlier work
MRSA = test: Antibiotic agar inhibition (MRSA inhibition zone) test; type: cell-based, Staphylococcus aureus; details: FIG. 6E
MRSA USA300 biofilm = type: in vivo, type II diabetic mice; details: 24 hours MRSA inoculation and subsequent 24 hour mupirocin 2% treatment
Experimental: Briefly, MRSA was grown in TSB overnight. Subsequently, 100 μL bacterial strain was pipetted into 4 mL fresh TSB medium for 3 hours followed by PBS washing for three times. Then, the bacterial concentration was adjusted to 1×10^8 CFU/mL and stored in the ice box before use. One hundred female 005314-TALLYHO/JngJ diabetic defective mice (10-11 weeks, 30-35 g, GLU>200 mg/dL) fed with standard pellet diet and water were used.
The biofilm was established in 005314-TALLYHO/JngJ mice excisional wounds. Two 6 mm-diameter full thickness wounds were created on the back of a mouse using a disposable biopsy punch (Integra Miltex®, Kai Medical, USA) and fixed with a wound splint (Grace Bio-labs, Inc, Bend, Oreg.). The wounds were all inoculated with 10 μL of 1×10^8 CFU/mL MRSA instantly after surgery, and mupirocin 2% was applied to treat the wounds at day 2 (24 hours after surgery). Then, the surrounding and wound tissue was collected using an 8 mm-diameter punch and the biofilm was confirmed by CFU count, LIVE/DEAD® staining and SEM observation.
The biofilm formation was performed as above-mentioned. The mice were then divided into control groups and peptide groups. Control groups' wounds were treated with 6-mm diameter F127-PCL core-shell nanofiber discs alone. […] All the dishes were inoculated in a 37° C. microbial incubator for 18 hours and the CFU numbers were counted. […]

MRSA biofilms = test: In vivo antibiofilm efficacy test, MRSA biofilm wounds (B6.BKS(D)-Leprdb/J mice); parameters: species or system type II diabetic mice; details: 24 hours and 48 hours inoculation followed by 24 hour treatment of 2% mupirocin ointment
Experimental: A biofilm-containing chronic wound model was established. Briefly, MRSA was grown in TSB overnight. Subsequently, 100 μL of bacterial strain was pipetted into 4 mL of fresh TSB medium and cultivated for 3 hours followed by PBS washing for three times. Then, the bacterial concentration was adjusted to 1×10^8 CFU/mL and stored in the ice box before use. Nine […] 000697-B6.BKS(D)-Leprdb/J diabetic defective mice (male, 10-11 weeks, 50-55 g, GLU>200 mg/dL) fed with standard pellet diet and water were used.
The biofilm was established in 000697-B6.BKS(D)-Leprdb/J mice excisional wounds. […]
After the biofilm formation was performed, F127/17BIPHE2-PCL-S core-shell nanofiber membranes or Janus-type dressings were put on the wound, different dressing changes strategies were applied to treat the biofilm formed wound. […] All the dishes were inoculated in a 37° C. microbial incubator for 18 hours, and the CFU numbers were counted.
To further evaluate the anti-biofilm efficacy, MRSA biofilms were established in type II diabetic mice wounds (FIG. 21). […] The CFU of MRSA biofilms (10^10-10^12 CFU/g) formed after 24 hours and 48 hours of bacteria inoculation and removal of planktonic bacteria was quantified (FIG. 21B). […]

[1] = in biofilm; Lawrence, et al. (1994); cited from earlier work
[2] = tested on: resistant ESKAPE pathogens, including persisters and biofilms; details: cited from earlier work
[3] = tested on: Staphylococcus aureus USA300; details: cited from earlier work

For “GX1KRLVQRLKDX2LRNLV, wherein X1 and X2 are biphenylalanines (SEQ ID NO: 2) (G[Bip]KRLVQRLKD[Bip]LRNLV) [17BIPHE2, molecularly engineered human cathelicidin LL-37 peptide]”, the “protection of wax moths from S. aureus USA300 infection” value (S. aureus USA300) is given as “optimized protection”.

In the case of `C/C(=C\C(=O)OCCCCCCCCC(=O)O)C[C@@H]1OC[C@H](C[C@@H]2O[C@H]2[C@@H](C)[C@H](C)O)[C@@H](O)[C@H]1O` [mupirocin 2%, mupirocin], the “killing of planktonic bacteria in antibiotic agar inhibition test” value (MRSA) is reported as “kill the planktonic bacteria very effectively”, the “bacteria resided on surgical site and surrounding tissues” value (MRSA USA300 biofilm) is reported as 10^10 CFU/g and the “CFU of MRSA biofilms” value (MRSA biofilms) is reported as 10^10-10^12 CFU/g.

For “RRRWWWWV; SEQ ID NO: 7 (Antimicrobial peptide) [W379, peptide with merely eight amino acids]”, the “diffusion coefficient of peptides (D)” value [1] is listed as 3.1×10^−12 m^2/s and the “antimicrobial activity against resistant ESKAPE pathogens” value [2] is listed as “antimicrobial activity”.

For LL-37, the “inhibition of bacterial attachment / disruption of preformed biofilms” value ([3]; Mishra, et al. (2016)) is given as “unable to inhibit bacterial attachment or disrupt preformed biofilms” and the “inhibition of biofilm growth of Staphylococcus aureus USA300” value ([3]; in vitro, Haisma, et al. (2014)) is given as “only at a low concentration”.
